Laboratory results as given in US9988635B2, “Modulation of growth hormone receptor expression and insulin-like growth factor expression” (Antisense Therapeutics Limited, priority 2003, dated 2018).
In the oligonucleotide strings, read from the 5' end, every base follows the letter of its sugar. An asterisk marks phosphorothioate; unmarked linkages are phosphodiester. Other units and linkages are bracketed, terminal groups are in braces. A string of capitals states the bases alone. e = 2'-O-(2-methoxyethyl) (MOE); [5mC] = 5-methylcytosine; d = 2'-deoxy (DNA)

Tested on: human growth hormone receptor mRNA
Experiment: Inhibition of human growth hormone receptor mRNA levels in MCF7 cells, quantitative real-time PCR
Type: cell-based
Parameters: concentration or dose not given beside the values
Conditions: averages from three experiments
Method: The human breast carcinoma cell line MCF-7 was obtained from the American Type Culture Collection (Manassas, Va.). MCF-7 cells were routinely cultured in DMEM low glucose (Gibco/Life Technologies, Gaithersburg, Md.) supplemented with 10% fetal calf serum (Gibco/Life Technologies, Gaithersburg, Md.). Cells were routinely passaged by trypsinization and dilution when they reached 90% confluence. Cells were seeded into 96-well plates (Falcon-Primaria #3872) at a density of 7000 cells/well for use in RT-PCR analysis.
When cells reached 65-75% confluency, they were treated with oligonucleotide. For cells grown in 96-well plates, wells were washed once with 100 μL OPTI-MEM™-1 reduced-serum medium (Invitrogen Corporation, Carlsbad, Calif.) and then treated with 130 μL of OPTI-MEM™-1 containing 3.75 μg/mL LIPOFECTIN™ (Invitrogen Corporation, Carlsbad, Calif.) and the desired concentration of oligonucleotide. Cells are treated and data are obtained in triplicate. After 4-7 hours of treatment at 37° C., the medium was replaced with fresh medium. Cells were harvested 16-24 hours after oligonucleotide treatment.
Total RNA was isolated using an RNEASY 96™ kit and buffers purchased from Qiagen Inc. (Valencia, Calif.) following the manufacturer's recommended procedures. Briefly, for cells grown on 96-well plates, growth medium was removed from the cells and each well was washed with 200 μL cold PBS. 150 μL Buffer RLT was added to each well and the plate vigorously agitated for 20 seconds. 150 μL of 70% ethanol was then added to each well and the contents mixed by pipetting three times up and down. The samples were then transferred to the RNEASY 96™ well plate attached to a QIAVAC™ manifold fitted with a waste collection tray and attached to a vacuum source. Vacuum was applied for 1 minute. 500 μL of Buffer RW1 was added to each well of the RNEASY 96™ plate and incubated for 15 minutes and the vacuum was again applied for 1 minute. An additional 500 μL of Buffer RW1 was added to each well of the RNEASY 96™ plate and the vacuum was applied for 2 minutes. 1 mL of Buffer RPE was then added to each well of the RNEASY 96™ plate and the vacuum applied for a period of 90 seconds. The Buffer RPE wash was then repeated and the vacuum was applied for an additional 3 minutes. The plate was then removed from the QIAVAC™ manifold and blotted dry on paper towels. The plate was then re-attached to the QIAVAC™ manifold fitted with a collection tube rack containing 1.2 mL collection tubes. RNA was then eluted by pipetting 140 μL of RNAse free water into each well, incubating 1 minute, and then applying the vacuum for 3 minutes.
Quantitation of growth hormone receptor mRNA levels was accomplished by real-time quantitative PCR using the ABI PRISM™ 7600, 7700, or 7900 Sequence Detection System (PE-Applied Biosystems, Foster City, Calif.) according to manufacturer's instructions. This is a closed-tube, non-gel-based, fluorescence detection system which allows high-throughput quantitation of polymerase chain reaction (PCR) products in real-time. As opposed to standard PCR in which amplification products are quantitated after the PCR is completed, products in real-time quantitative PCR are quantitated as they accumulate. This is accomplished by including in the PCR reaction an oligonucleotide probe that anneals specifically between the forward and reverse PCR primers, and contains two fluorescent dyes. A reporter dye (e.g., FAM or JOE, obtained from either PE-Applied Biosystems, Foster City, Calif., Operon Technologies Inc., Alameda, Calif. or Integrated DNA Technologies Inc., Coralville, Iowa) is attached to the 5′ end of the probe and a quencher dye (e.g., TAMRA, obtained from either PE-Applied Biosystems, Foster City, Calif., Operon Technologies Inc., Alameda, Calif. or Integrated DNA Technologies Inc., Coralville, Iowa) is attached to the 3′ end of the probe. When the probe and dyes are intact, reporter dye emission is quenched by the proximity of the 3′ quencher dye. […]

| Substance | % INHIB of human growth hormone receptor mRNA levels |
| --- | --- |
| 272339 (antisense eG*eT*eT*eT*eT*dA*d[5mC]*dA*dT*dA*dT*d[5mC]*d[5mC]*dA*dA*eA*e[5mC]*eT*eA*eT) [compound 272339] | 72% |
| 272350 (antisense eA*eG*eG*e[5mC]*eT*dG*dT*dT*dG*dT*dG*dA*dA*dA*dT*eA*eG*eT*eA*eA) [compound 272350] | 67% |
| 272321 (antisense eA*eA*e[5mC]*e[5mC]*e[5mC]*dA*dA*dG*dA*dG*dT*d[5mC]*dA*dT*d[5mC]*eA*e[5mC]*eT*eG*eT) [compound 272321] | 64% |
| 272324 (antisense eT*eA*eT*eG*eT*d[5mC]*dA*dT*dT*dG*dG*d[5mC]*dA*dT*dT*eG*eA*eA*eA*eT) [compound 272324] | 53% |
| 272315 (antisense e[5mC]*eA*eA*eT*eG*dA*dG*dT*dA*d[5mC]*dA*d[5mC]*dT*dG*dG*eA*eA*e[5mC]*eT*eG) [compound 272315] | 53% |
| 272309 (antisense eT*eA*eA*e[5mC]*eA*dG*d[5mC]*dT*dG*dT*dT*dT*dT*d[5mC]*d[5mC]*e[5mC]*e[5mC]*eA*eG*e[5mC]) [compound 272309] | 85% |
| 272325 (antisense eA*eA*eG*eG*e[5mC]*dA*dT*dA*dA*dG*dA*dG*dA*dT*d[5mC]*eT*eG*e[5mC]*eT*eT) [compound 272325] | 66% |
| 272358 (antisense eT*e[5mC]*eT*e[5mC]*e[5mC]*dA*dG*dA*dT*dA*dG*dA*dA*dT*d[5mC]*eT*eA*eA*eA*e[5mC]) [compound 272358] | 53% |
| 227468 (antisense eT*e[5mC]*eA*eT*e[5mC]*dA*dA*dT*dA*dT*d[5mC]*dT*dA*dG*d[5mC]*eT*e[5mC]*eA*eA*eT) [compound 227468] | 62% |
| 272323 (antisense eT*eG*eT*eG*eT*d[5mC]*dT*dG*dA*dT*dT*d[5mC]*d[5mC]*dT*d[5mC]*eA*eG*eT*e[5mC]*eT) [compound 272323] | 67% |
| 272303 (antisense e[5mC]*e[5mC]*eA*eG*eA*dG*dA*dT*d[5mC]*d[5mC]*dA*dT*dA*d[5mC]*d[5mC]*eT*eG*eT*eA*eG) [compound 272303] | 55% |
| 272308 (antisense eG*e[5mC]*eT*eG*eT*dA*dT*dG*dG*dG*dT*d[5mC]*d[5mC]*dT*dA*eG*eG*eT*eT*e[5mC]) [compound 272308] | 57% |
| 272331 (antisense e[5mC]*eA*eG*eT*e[5mC]*dG*d[5mC]*dA*dT*dT*dG*dA*dG*dT*dA*eT*eG*eA*eG*eG) [compound 272331] | 67% |
| 272319 (antisense eA*eT*eT*eT*eT*d[5mC]*d[5mC]*dT*dT*d[5mC]*d[5mC]*dT*dT*dG*dA*eG*eG*eA*eG*eA) [compound 272319] | 67% |
| 227483 (antisense eA*eG*eG*e[5mC]*eT*dT*dT*d[5mC]*dT*dG*dT*dG*dG*dT*dG*eA*eT*eG*eT*eA) [compound 227483] | 75% |
| 227502 (antisense eG*eA*eT*eT*eG*dA*dG*dG*dT*dA*dT*dT*dT*dA*dG*e[5mC]*eT*eA*eT*eT) [compound 227502] | 56% |
| 272316 (antisense eA*eA*e[5mC]*eT*e[5mC]*dG*d[5mC]*d[5mC]*dA*dT*dA*dA*dT*dT*dT*e[5mC]*e[5mC]*eA*eG*eA) [compound 272316] | 64% |

| Substance | % INHIB of human growth hormone receptor mRNA levels |
| --- | --- |
| 272336 (antisense e[5mC]*eA*eA*eT*e[5mC]*dA*d[5mC]*dT*dG*d[5mC]*dT*dA*d[5mC]*dT*dA*eA*eA*e[5mC]*eA*eG) [compound 272336] | 69% |
| 227482 (antisense eT*eT*e[5mC]*eT*eG*dT*dG*dG*dT*dG*dA*dT*dG*dT*dA*eA*eA*eT*eG*eT) [compound 227482] | 53% |
| 272340 (antisense e[5mC]*eA*eT*e[5mC]*eA*dA*d[5mC]*d[5mC]*dA*dA*dG*dA*dT*dT*dT*eG*eG*eT*eG*eA) [compound 272340] | 69% |
| 272348 (antisense e[5mC]*eA*e[5mC]*eA*eG*d[5mC]*dT*dT*dT*dG*dA*dA*dT*dT*dG*eA*eA*eT*eT*eA) [compound 272348] | 57% |
| 227481 (antisense eT*eG*eG*eT*eG*dA*dT*dG*dT*dA*dA*dA*dT*dG*dT*e[5mC]*e[5mC]*eT*e[5mC]*eT) [compound 227481] | 45% |
| 272322 (antisense e[5mC]*eT*eG*eG*e[5mC]*dT*d[5mC]*dA*dT*d[5mC]*dA*dA*dT*dA*dT*e[5mC]*eT*eA*eG*e[5mC]) [compound 272322] | 84% |
| 227475 (antisense e[5mC]*e[5mC]*eT*eG*e[5mC]*dT*dG*dG*dT*dG*dT*dA*dA*dT*dG*eT*e[5mC]*eG*e[5mC]*eT) [compound 227475] | 68% |
| 272317 (antisense eA*eG*e[5mC]*e[5mC]*e[5mC]*dA*dA*dA*dT*dA*dT*dT*d[5mC]*d[5mC]*dA*eA*eA*eG*eA*eT) [compound 272317] | 65% |
| 227453 (antisense e[5mC]*eA*eT*eA*eA*dT*d[5mC]*dA*dG*dG*dG*d[5mC]*dA*dT*dT*e[5mC]*eT*eT*eT*e[5mC]) [compound 227453] | 52% |
| 227499 (antisense eT*eA*eT*eA*eA*dA*dA*dG*dG*dG*d[5mC]*dT*dT*dT*dG*eT*eA*eA*eA*eA) [compound 227499] | 14% |
| 272343 (antisense eA*eA*eT*eG*e[5mC]*dT*d[5mC]*dT*d[5mC]*dA*dA*dG*dA*dA*dT*eG*eA*eT*eG*eT) [compound 272343] | 48% |
| 272307 (antisense eG*eT*eG*eA*eA*dT*dT*dT*dA*dG*dG*d[5mC]*dT*d[5mC]*d[5mC]*eT*eT*eA*eG*eA) [compound 272307] | 55% |
| 272302 (antisense eG*eA*eT*e[5mC]*e[5mC]*dA*dT*dA*d[5mC]*d[5mC]*dT*dG*dT*dA*dG*eG*eA*e[5mC]*e[5mC]*eT) [compound 272302] | 60% |
| 227484 (antisense eT*eG*eG*eT*eA*dA*dG*dG*d[5mC]*dT*dT*dT*d[5mC]*dT*dG*eT*eG*eG*eT*eG) [compound 227484] | 63% |
| 227500 (antisense e[5mC]*eA*eT*eA*eG*d[5mC]*dA*dG*d[5mC]*dA*dA*dA*dG*dT*dA*eG*e[5mC]*eA*eG*eA) [compound 227500] | 69% |
| 272351 (antisense eA*eT*eA*eG*eA*dA*dA*dT*dG*dT*dT*dG*dT*d[5mC]*dA*eG*eG*e[5mC]*eT*eG) [compound 272351] | 57% |
| 227501 (antisense eG*e[5mC]*eT*eA*eT*dT*dT*dT*dT*dG*dG*d[5mC]*dT*dA*dT*eA*eG*eA*eA*eA) [compound 227501] | 64% |
